# Source: US20060069132A1, “Azolecarboxamide herbicides” (priority 2004, published 2006)
# Columns and labels:
# [1] = tested on: small flower umbrella sedge; experiment: Test B flooded paddy test; assay type: in vivo, Cyperus difformis; settings: 1000 g ai/ha, scale 0 to 100 (0 no effect, 100 complete control)
# In short: (§1)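 Paddy species grown to the 2-leaf stage under flooding; blackgrass sprayed postemergence at 2–18 cm (1- to 4-leaf stage). Plants kept in a greenhouse for 13 to 15 days, then visually rated against controls on 0 (no effect) to 100 (complete control).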
# lambsquarters = experiment: Test B pre-/postemergence herbicide test; assay type: in vivo, Chenopodium album
# In short: (§2)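 Response was scored visually 13 to 15 days after treatment against untreated greenhouse controls, 0 meaning no effect and 100 complete control. Formulations (solvent mixture plus surfactant) went onto soil after planting, onto foliage of 1- to 4-leaf plants, and onto 2-leaf plants in a flooded paddy set including rice and barnyardgrass.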
# wild oat = experiment: Test B postemergence herbicide test; assay type: in vivo, Avena fatua
# In short: (§3)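 Scale 0–100: zero equals no visible effect, 100 complete control, judged by eye relative to controls. Timing: 13 to 15 days in greenhouse post-treatment. Growth stage at spraying: two leaves (paddy) or one to four leaves, 2–18 cm (postemergence).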
# rice = experiment: Test B flooded paddy test; assay type: in vivo, Oryza sativa; settings: 1000 g ai/ha, scale 0 to 100 (0 no effect, 100 complete control)
# In short: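 Postemergence plants were sprayed with formulated test chemicals at 2 to 18 cm height (1- to 4-leaf stage); paddy species were grown to the 2-leaf stage. After 13 to 15 days in a greenhouse, injury was rated visually against untreated controls on a 0–100 scale (0 = no effect, 100 = complete control).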
# pigweed = experiment: Test B pre-/postemergence herbicide test; assay type: in vivo, Amaranthus retroflexus
# In short: as §2
# barnyardgrass = experiment: Test B pre-/postemergence herbicide test; assay type: in vivo, Echinochloa crus-galli
# In short: (§4)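 Test chemicals in a non-phytotoxic solvent mixture with surfactant were applied preemergence to seeded species and postemergence to plants 2-18 cm tall (1- to 4-leaf stage); rice and barnyardgrass were also tested in a flooded paddy at the 2-leaf stage. Visual rating versus controls after 13-15 days in greenhouse, scale 0 (no effect) to 100 (complete control).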
# giant foxtail = experiment: Test B pre-/postemergence herbicide test; assay type: in vivo, Setaria faberi
# In short: as §2
# wheat = experiment: Test B postemergence herbicide test; assay type: in vivo, Triticum aestivum; design: key to Wheat plant response rating: 0 = no effect, 100 = complete control
# In short: as §3
# ducksalad = experiment: Test B flooded paddy test; assay type: in vivo, Heteranthera limosa; settings: 1000 g ai/ha, scale 0 to 100 (0 no effect, 100 complete control)
# In short: as §1
# Surinam grass = experiment: Test B pre-/postemergence herbicide test; assay type: in vivo, Urochloa decumbens
# In short: as §2
# large crabgrass = experiment: Test B pre-/postemergence herbicide test; assay type: in vivo, Digitaria sanguinalis
# In short: as §2
# blackgrass = experiment: Test B postemergence herbicide test; assay type: in vivo, Alopecurus myosuroides
# In short: as §1
# velvetleaf = experiment: Test B pre-/postemergence herbicide test; assay type: in vivo, Abutilon theophrasti
# In short: as §2
# morningglory = experiment: Test B pre-/postemergence herbicide test; assay type: in vivo, Ipomoea coccinea
# In short: as §4
# corn = experiment: Test B pre-/postemergence herbicide test; assay type: in vivo, Zea mays
# In short: as §2
# [2] = 125 g ai/ha; 0 = no effect, 100 = complete control; preemergence
# [3] = 500 g ai/ha; visual rating, 0 = no effect, 100 = complete control; preemergence
# [4] = postemergence, 125 g ai/ha; visual rating, scale 0 (no effect) to 100 (complete control)
# [5] = postemergence, 500 g ai/ha; scale 0 to 100, 0 is no effect, 100 is complete control
# [6] = 125 g ai/ha; visual rating, scale 0 (no effect) to 100 (complete control); postemergence
smiles,measurement,setting,value
C=CCN(C)C(=O)c1cccc(NC(=O)c2cc(C(C)(C)C)nn2CC)c1 [Compound 285],"Sedge, Umbrella plant response rating",[1],90
same,Lambsquarters plant response rating (0 to 100 scale),lambsquarters; [2],100
same,"Plant response rating, Lambsquarters",lambsquarters; [3],100
same,Lambsquarters plant response rating,lambsquarters; [4],40
same,Lambsquarters plant response rating,lambsquarters; [5],70
same,"Oat, Wild plant response rating",wild oat; [4],40
same,"Oat, Wild plant response rating",wild oat; [5],50
same,Rice plant response rating,rice,80
same,Pigweed plant response rating (0 to 100 scale),pigweed; [2],100
same,"Plant response rating, Pigweed",pigweed; [3],100
same,Pigweed plant response rating,pigweed; [4],70
same,Pigweed plant response rating,pigweed; [5],80
same,Barnyardgrass plant response rating (0 to 100 scale),barnyardgrass; [2],30
same,"Plant response rating, Barnyardgrass",barnyardgrass; [3],90
same,Barnyardgrass plant response rating,barnyardgrass; [4],0
same,Barnyardgrass plant response rating,barnyardgrass; [5],10
same,"Foxtail, Giant plant response rating (0 to 100 scale)",giant foxtail; [2],10
same,"Plant response rating, Foxtail, Giant",giant foxtail; [3],80
same,"Foxtail, Giant plant response rating",giant foxtail; [4],30
same,"Foxtail, Giant plant response rating",giant foxtail; [5],50
same,Wheat plant response rating,wheat; [4],30
same,Wheat plant response rating,wheat; [5],40
same,Ducksalad plant response rating,ducksalad,90
same,Surinam Grass plant response rating (0 to 100 scale),Surinam grass; [2],10
same,"Plant response rating, Surinam Grass",Surinam grass; [3],70
same,Surinam Grass plant response rating,Surinam grass; [4],10
same,Surinam Grass plant response rating,Surinam grass; [5],30
same,"Crabgrass, Large plant response rating (0 to 100 scale)",large crabgrass; [2],20
same,"Plant response rating, Crabgrass, Large",large crabgrass; [3],70
same,"Crabgrass, Large plant response rating",large crabgrass; [4],0
same,"Crabgrass, Large plant response rating",large crabgrass; [5],20
same,Blackgrass plant response rating,blackgrass; [4],30
same,Blackgrass plant response rating,blackgrass; [5],30
same,Velvetleaf plant response rating (0 to 100 scale),velvetleaf; [2],30
same,"Plant response rating, Velvetleaf",velvetleaf; [3],100
same,Velvetleaf plant response rating,velvetleaf; [4],10
same,Velvetleaf plant response rating,velvetleaf; [5],40
same,Morningglory plant response rating (0 to 100 scale),morningglory; [2],0
same,"Plant response rating, Morningglory",morningglory; [3],10
same,Morningglory plant response rating,morningglory; [4],20
same,Morningglory plant response rating,morningglory; [5],30
same,Corn plant response rating (0 to 100 scale),corn; [2],0
same,"Plant response rating, Corn",corn; [3],40
same,Corn plant response rating,corn; [4],10
same,Corn plant response rating,corn; [5],10
CCc1nn(C(C)(C)C)cc1C(=O)Nc1cc(C(=O)N(C)C)ccn1 [Compound 293],"Sedge, Umbrella plant response rating",[1],80
same,Lambsquarters plant response rating (0 to 100 scale),lambsquarters; [2],80
same,Lambsquarters plant response rating,lambsquarters; [6],50
same,"Plant response rating, Lambsquarters",lambsquarters; [3],100
same,Lambsquarters plant response rating,lambsquarters; [5],70
same,"Oat, Wild plant response rating",wild oat; [6],30
same,"Oat, Wild plant response rating",wild oat; [5],50
same,Rice plant response rating,rice,90
same,Pigweed plant response rating (0 to 100 scale),pigweed; [2],10
same,Pigweed plant response rating,pigweed; [6],10
same,"Plant response rating, Pigweed",pigweed; [3],100
same,Pigweed plant response rating,pigweed; [5],40
same,Barnyardgrass plant response rating (0 to 100 scale),barnyardgrass; [2],90
same,Barnyardgrass plant response rating,barnyardgrass; [6],0
same,"Plant response rating, Barnyardgrass",barnyardgrass; [3],100
same,Barnyardgrass plant response rating,barnyardgrass; [5],10
same,"Foxtail, Giant plant response rating (0 to 100 scale)",giant foxtail; [2],60
same,"Foxtail, Giant plant response rating",giant foxtail; [6],20
same,"Plant response rating, Foxtail, Giant",giant foxtail; [3],100
same,"Foxtail, Giant plant response rating",giant foxtail; [5],30
same,Wheat plant response rating,wheat; [6],20
same,Wheat plant response rating,wheat; [5],30
same,Ducksalad plant response rating,ducksalad,80
same,Surinam Grass plant response rating (0 to 100 scale),Surinam grass; [2],90
same,Surinam Grass plant response rating,Surinam grass; [6],10
same,"Plant response rating, Surinam Grass",Surinam grass; [3],100
same,Surinam Grass plant response rating,Surinam grass; [5],20
same,"Crabgrass, Large plant response rating (0 to 100 scale)",large crabgrass; [2],100
same,"Crabgrass, Large plant response rating",large crabgrass; [6],0
same,"Plant response rating, Crabgrass, Large",large crabgrass; [3],100
same,"Crabgrass, Large plant response rating",large crabgrass; [5],20
same,Blackgrass plant response rating,blackgrass; [6],30
same,Blackgrass plant response rating,blackgrass; [5],30
same,Velvetleaf plant response rating,velvetleaf; [6],10
same,"Plant response rating, Velvetleaf",velvetleaf; [3],100
same,Velvetleaf plant response rating,velvetleaf; [5],30
same,Morningglory plant response rating (0 to 100 scale),morningglory; [2],40
same,Morningglory plant response rating,morningglory; [6],30
same,"Plant response rating, Morningglory",morningglory; [3],100
same,Morningglory plant response rating,morningglory; [5],70
same,Corn plant response rating (0 to 100 scale),corn; [2],70
same,Corn plant response rating,corn; [6],10
same,"Plant response rating, Corn",corn; [3],100
same,Corn plant response rating,corn; [5],30
CCn1nc(C(C)(C)C)cc1C(=O)Nc1cc(C(=S)N(C)C)ccc1F [Compound 294],"Sedge, Umbrella plant response rating",[1],80
same,Lambsquarters plant response rating (0 to 100 scale),lambsquarters; [2],100
same,Lambsquarters plant response rating,lambsquarters; [6],70
same,"Plant response rating, Lambsquarters",lambsquarters; [3],100
same,Lambsquarters plant response rating,lambsquarters; [5],80
same,"Oat, Wild plant response rating",wild oat; [6],40
same,"Oat, Wild plant response rating",wild oat; [5],50
same,Rice plant response rating,rice,90
same,Pigweed plant response rating (0 to 100 scale),pigweed; [2],100
same,Pigweed plant response rating,pigweed; [6],30
same,"Plant response rating, Pigweed",pigweed; [3],100
same,Pigweed plant response rating,pigweed; [5],70
same,Barnyardgrass plant response rating (0 to 100 scale),barnyardgrass; [2],100
same,Barnyardgrass plant response rating,barnyardgrass; [6],20
same,"Plant response rating, Barnyardgrass",barnyardgrass; [3],100
same,Barnyardgrass plant response rating,barnyardgrass; [5],60
same,"Foxtail, Giant plant response rating (0 to 100 scale)",giant foxtail; [2],90
same,"Foxtail, Giant plant response rating",giant foxtail; [6],30
same,"Plant response rating, Foxtail, Giant",giant foxtail; [3],100
same,"Foxtail, Giant plant response rating",giant foxtail; [5],50
same,Wheat plant response rating,wheat; [6],30
same,Wheat plant response rating,wheat; [5],40
same,Ducksalad plant response rating,ducksalad,90
same,Surinam Grass plant response rating (0 to 100 scale),Surinam grass; [2],100
same,Surinam Grass plant response rating,Surinam grass; [6],20
same,"Plant response rating, Surinam Grass",Surinam grass; [3],100
same,Surinam Grass plant response rating,Surinam grass; [5],40
same,"Crabgrass, Large plant response rating (0 to 100 scale)",large crabgrass; [2],100
same,"Crabgrass, Large plant response rating",large crabgrass; [6],10
same,"Plant response rating, Crabgrass, Large",large crabgrass; [3],100
same,"Crabgrass, Large plant response rating",large crabgrass; [5],20
same,Blackgrass plant response rating,blackgrass; [6],20
same,Blackgrass plant response rating,blackgrass; [5],60
same,Velvetleaf plant response rating,velvetleaf; [6],40
same,"Plant response rating, Velvetleaf",velvetleaf; [3],100
same,Velvetleaf plant response rating,velvetleaf; [5],80
same,Morningglory plant response rating (0 to 100 scale),morningglory; [2],0
same,Morningglory plant response rating,morningglory; [6],10
same,"Plant response rating, Morningglory",morningglory; [3],20
same,Morningglory plant response rating,morningglory; [5],20
same,Corn plant response rating (0 to 100 scale),corn; [2],80
same,Corn plant response rating,corn; [6],10
same,"Plant response rating, Corn",corn; [3],100
same,Corn plant response rating,corn; [5],50
CCn1nc(C2(C)CC2)cc1C(=O)Nc1cc(C(=O)N(C)C)ccc1F [Compound 299],"Sedge, Umbrella plant response rating",[1],90
same,Lambsquarters plant response rating (0 to 100 scale),lambsquarters; [2],100
same,Lambsquarters plant response rating,lambsquarters; [6],40
same,"Plant response rating, Lambsquarters",lambsquarters; [3],100
same,Lambsquarters plant response rating,lambsquarters; [5],100
same,"Oat, Wild plant response rating",wild oat; [6],20
same,"Oat, Wild plant response rating",wild oat; [5],40
same,Rice plant response rating,rice,90
same,Pigweed plant response rating (0 to 100 scale),pigweed; [2],100
same,Pigweed plant response rating,pigweed; [6],90
same,"Plant response rating, Pigweed",pigweed; [3],100
same,Pigweed plant response rating,pigweed; [5],100
same,Barnyardgrass plant response rating (0 to 100 scale),barnyardgrass; [2],90
same,Barnyardgrass plant response rating,barnyardgrass; [6],10
same,"Plant response rating, Barnyardgrass",barnyardgrass; [3],100
same,Barnyardgrass plant response rating,barnyardgrass; [5],90
same,"Foxtail, Giant plant response rating (0 to 100 scale)",giant foxtail; [2],100
same,"Foxtail, Giant plant response rating",giant foxtail; [6],10
same,"Plant response rating, Foxtail, Giant",giant foxtail; [3],100
same,"Foxtail, Giant plant response rating",giant foxtail; [5],80
same,Wheat plant response rating,wheat; [6],20
same,Wheat plant response rating,wheat; [5],30
same,Ducksalad plant response rating,ducksalad,90
same,Surinam Grass plant response rating (0 to 100 scale),Surinam grass; [2],100
same,Surinam Grass plant response rating,Surinam grass; [6],20
same,"Plant response rating, Surinam Grass",Surinam grass; [3],100
same,Surinam Grass plant response rating,Surinam grass; [5],80
same,"Crabgrass, Large plant response rating (0 to 100 scale)",large crabgrass; [2],100
same,"Crabgrass, Large plant response rating",large crabgrass; [6],10
same,"Plant response rating, Crabgrass, Large",large crabgrass; [3],100
same,"Crabgrass, Large plant response rating",large crabgrass; [5],90
same,Blackgrass plant response rating,blackgrass; [6],20
same,Blackgrass plant response rating,blackgrass; [5],50
same,Velvetleaf plant response rating,velvetleaf; [6],60
same,"Plant response rating, Velvetleaf",velvetleaf; [3],100
same,Velvetleaf plant response rating,velvetleaf; [5],100
same,Morningglory plant response rating (0 to 100 scale),morningglory; [2],40
same,Morningglory plant response rating,morningglory; [6],70
same,"Plant response rating, Morningglory",morningglory; [3],100
same,Morningglory plant response rating,morningglory; [5],80
same,Corn plant response rating (0 to 100 scale),corn; [2],50
same,Corn plant response rating,corn; [6],0
same,"Plant response rating, Corn",corn; [3],90
same,Corn plant response rating,corn; [5],20
